Results as given in patent US20230145793A1, “SUBSTITUTED PYRIMIDINE OR PYRIDINE AMINE DERIVATIVE, COMPOSITION THEREOF, AND MEDICAL USE THEREOF” (SHANGHAI HAIYAN PHARMACEUTICAL TECHNOLOGY CO., LTD., priority 2020, published 2023).

Legend:
A2A receptor = biological target: T1, A2A receptor (Homo sapiens, UniProt P29274); experiment: Test 1: inhibitory activity to the A2A receptor, cAMP HTRF in CHO-K1/ADORA2A/Gα15 cells, NECA 50 nM; format: cell-based
T1 construct: host or cells: CHO-K1 (co-expressing Gα15)
T1 sequence (P29274 whole entry): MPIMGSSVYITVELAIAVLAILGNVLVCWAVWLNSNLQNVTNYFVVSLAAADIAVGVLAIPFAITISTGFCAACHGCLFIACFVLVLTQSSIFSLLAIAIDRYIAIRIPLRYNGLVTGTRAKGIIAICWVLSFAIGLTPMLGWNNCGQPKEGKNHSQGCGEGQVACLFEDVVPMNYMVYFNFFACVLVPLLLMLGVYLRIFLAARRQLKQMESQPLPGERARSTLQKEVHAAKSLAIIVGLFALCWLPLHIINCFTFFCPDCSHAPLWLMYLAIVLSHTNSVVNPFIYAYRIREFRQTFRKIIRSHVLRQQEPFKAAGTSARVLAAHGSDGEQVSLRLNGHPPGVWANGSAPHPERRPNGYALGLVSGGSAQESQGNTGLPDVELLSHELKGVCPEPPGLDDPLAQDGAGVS
Experimental: (§1) Test 1: Inhibitory Activities to the A2A Receptor and the A2B Receptor CHO-K1/ADORA2A/Gα15 (GenScript, M00246) and CHO-K1/ADORA2B/Gα15 (GenScript, M00329) cells were cultured in a Ham's F-12 (Gibco, 31765092) medium containing 10% FBS, Zeocin (200 ug/mL), and Hygromycin B (100 ug/mL), or containing 10% FBS, G418 (400 ug/mL), and Hygromycin B (100 ug/mL) under culture conditions specified in the corresponding instruction. Screening procedure was as follows: 1. The cell density was adjusted with a serum-free medium to 6×10^5 cells/mL. 2. 5 uL of cell solution, 2.5 μL of NECA (Sigma, 119140-10MG), and 2.5 μL of compound solution were placed into each well of a 384-well plate (Greiner Bio-One, 784075) in sequence, the final concentration of NECA was 50 nM (CHO-K1/ADORA2A) or 10 nM (CHO-K1/ADORA2B), and the compound solution was subjected to 3-fold dilution from the final concentration of 3 uM. 3. The cells were placed still and cultured in an incubator at 37° C. for 30 min. 4. 5 μL of cAMP-d2 and 5 μL of cAMP-ab (Cisbio, 62AM4PEB) were added in sequence. 5. The 384-well plate was placed in dark at the room temperature for 1 h. 6. The plate was read (Victor X5, PerkinElmer), data were analyzed by XLfit nonlinear regression, and IC50 values of the compounds were calculated.

A2B receptor = biological target: T2, A2B receptor (Homo sapiens, UniProt P29275); experiment: Test 1: inhibitory activity to the A2B receptor, cAMP HTRF in CHO-K1/ADORA2B/Gα15 cells, NECA 10 nM; format: cell-based
T2 construct: host or cells: CHO-K1 (co-expressing Gα15)
T2 sequence (P29275 1-332): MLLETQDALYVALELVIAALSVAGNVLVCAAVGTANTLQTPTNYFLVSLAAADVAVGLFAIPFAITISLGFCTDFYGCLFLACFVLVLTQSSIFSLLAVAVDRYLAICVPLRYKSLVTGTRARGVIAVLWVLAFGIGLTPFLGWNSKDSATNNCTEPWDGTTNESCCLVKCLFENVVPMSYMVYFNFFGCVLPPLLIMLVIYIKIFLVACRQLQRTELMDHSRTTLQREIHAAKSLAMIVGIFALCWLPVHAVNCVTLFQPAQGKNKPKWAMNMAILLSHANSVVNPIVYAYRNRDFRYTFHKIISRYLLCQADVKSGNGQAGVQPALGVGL
Experimental: as §1

SMILES	IC50 (A2A receptor) [µM]	IC50 (A2B receptor) [µM]
Cc1c(C#N)cccc1-c1nc(N)c(F)c(-c2cn(Cc3cccc(CN4CCN(C)CC4)n3)nn2)n1 [Compound L-71]	0.006	0.023
Cc1c(C#N)cccc1-c1nc(N)c(F)c(-c2cn(Cc3cccc(N4CCN(C)CC4)n3)nn2)n1 [Compound L-72]	0.004	0.014
Cc1c(C#N)cccc1-c1nc(N)c(F)c(-c2cn(Cc3cccc(C(F)F)n3)nn2)n1 [Compound L-73]	0.003	0.005
Cc1c(C#N)cccc1-c1nc(N)c(F)c(-c2cn(Cc3ccn(C(C)C)n3)nn2)n1 [Compound L-75]	< 0.001	0.0005
Cc1c(C#N)cccc1-c1nc(N)c(F)c(-c2cn(Cc3ccn(CC(C)(C)O)n3)nn2)n1 [Compound L-76]	0.005	0.007
Cc1c(C#N)cccc1-c1nc(N)c(F)c(-c2cn(Cc3ccn(C4CCOC4)n3)nn2)n1 [Compound L-77]	0.001	0.003
COCCn1ccc(Cn2cc(-c3nc(-c4cccc(C#N)c4C)nc(N)c3F)nn2)n1 [Compound L-78]	0.003	0.003
Cc1c(C#N)cccc1-c1nc(N)c(F)c(-c2cn(Cc3cc(C)n(C)n3)nn2)n1 [Compound L-79]	0.019	0.025
Cc1c(C#N)cccc1-c1nc(N)c(F)c(-c2cn(Cc3nn(C)cc3F)nn2)n1 [Compound L-80]	0.015	0.013
Cc1c(C#N)cccc1-c1nc(N)c(F)c(-c2cn(Cc3cccc(C(C)(O)C(F)(F)F)n3)nn2)n1 [Compound L-81]	0.004	0.023
Cc1c(C#N)cccc1-c1nc(N)c(F)c(-c2cn(Cc3ccn(CC4CCCO4)n3)nn2)n1 [Compound L-83]	0.003	0.007
Cc1c(C#N)cccc1-c1nc(N)c(Cl)c(-c2cn(Cc3cccc(S(C)(=O)=O)c3)nn2)n1 [Compound L-84]	0.004	0.024
CCC(C)(O)c1cccc(Cn2cc(-c3nc(-c4cccc(C#N)c4C)nc(N)c3F)nn2)n1 [Compound L-85]	0.002	0.004
COC(C)c1cccc(Cn2cc(-c3nc(-c4cccc(C#N)c4C)nc(N)c3F)nn2)n1 [Compound L-86]	< 0.001	0.001
Cc1c(C#N)cccc1-c1nc(N)c(F)c(-c2cn(Cc3ccn(C4COC4)n3)nn2)n1 [Compound L-88]	0.002	0.008
Cc1c(C#N)cccc1-c1nc(N)c(F)c(-c2cn(Cc3ccn(C4CCN(C)C4)n3)nn2)n1 [Compound L-90]	0.005	0.029
Cc1c(C#N)cccc1-c1nc(N)c(F)c(-c2cn(Cc3cc(C4CC4)n(C)n3)nn2)n1 [Compound L-92]	0.011	0.005
Cc1c(C#N)cccc1-c1nc(N)c(Cl)c(-c2cn(Cc3ccn(C4COC4)n3)nn2)n1 [Compound L-93]	< 0.001	0.004
Cc1c(C#N)cccc1-c1nc(N)c(F)c(-c2cn(Cc3ccn(CC#N)n3)nn2)n1 [Compound L-97]	0.006	0.005
